Source: ChEMBL document CHEMBL2440076, “New triarylpyrazoles as broad-spectrum anticancer agents: design, synthesis, and biological evaluation” (Eur J Med Chem, 2013)

Columns and labels:
Assay type in all cases: functional
OVCAR-3 = experiment: Growth inhibition of human OVCAR3 cells assessed as cell growth at 5X10'-9 M after 48 hrs by sulforhodamine B assay; settings: OVCAR-3, 48 h, read-out: Activity
BT-549 = experiment: Growth inhibition of human BT549 cells assessed as cell growth at 5X10'-6 M after 48 hrs by sulforhodamine B assay; settings: BT-549, 48 h, read-out: Activity
SR = experiment: Growth inhibition of human SR cells assessed as cell growth at 5X10'-7 M after 48 hrs by sulforhodamine B assay; settings: read-out: Activity
NCI-H460 = experiment: Growth inhibition of human NCI-H460 cells assessed as cell growth at 5X10'-7 M after 48 hrs by sulforhodamine B assay; settings: NCI-H460, 48 h, read-out: Activity
MDA-MB-231 [1] = experiment: Growth inhibition of human MDA-MB-231 cells assessed as cell growth at 5X10'-7 M after 48 hrs by sulforhodamine B assay; settings: MDA-MB-231, 48 h, read-out: Activity
PC-3 = experiment: Growth inhibition of human PC3 cells assessed as cell growth at 5X10'-8 M after 48 hrs by sulforhodamine B assay; settings: PC-3, 48 h, read-out: Activity
OVCAR-5 = experiment: Growth inhibition of human OVCAR5 cells assessed as cell growth at 5X10'-7 M after 48 hrs by sulforhodamine B assay; settings: OVCAR-5, 48 h, read-out: Activity
NCI-H522 [2] = experiment: Growth inhibition of human NCI-H522 cells assessed as cell growth at 5X10'-9 M after 48 hrs by sulforhodamine B assay; settings: NCI-H522, 48 h, read-out: Activity
HCT-15 = experiment: Growth inhibition of human HCT15 cells assessed as cell growth at 5X10'-8 M after 48 hrs by sulforhodamine B assay; settings: HCT-15, 48 h, read-out: Activity
K562 [3] = experiment: Growth inhibition of human K562 cells assessed as cell growth at 5X10'-9 M after 48 hrs by sulforhodamine B assay; settings: K562, 48 h, read-out: Activity
U-251 [4] = experiment: Growth inhibition of human U251 cells assessed as cell growth at 5X10'-6 M after 48 hrs by sulforhodamine B assay; settings: U-251, 48 h, read-out: Activity
[5] = Growth inhibition of human HCC2998 cells assessed as cell growth at 5X10'-6 M after 48 hrs by sulforhodamine B assay; settings: HCC 2998, 48 h, read-out: Activity
M14 [6] = experiment: Growth inhibition of human M14 cells assessed as cell growth at 5X10'-6 M after 48 hrs by sulforhodamine B assay; settings: M14, 48 h, read-out: Activity
NCI-H226 [7] = experiment: Growth inhibition of human NCI-H226 cells assessed as cell growth at 5X10'-8 M after 48 hrs by sulforhodamine B assay; settings: NCI-H226, 48 h, read-out: Activity
SF-268 = experiment: Growth inhibition of human SF268 cells assessed as cell growth at 5X10'-7 M after 48 hrs by sulforhodamine B assay; settings: SF-268, 48 h, read-out: Activity
MDA-MB-435 [8] = experiment: Growth inhibition of human MDA-MB-435 cells assessed as cell growth at 5X10'-5 M after 48 hrs by sulforhodamine B assay; settings: MDA-MB-435, 48 h, read-out: Activity
MOLT-4 = experiment: Growth inhibition of human MOLT4 cells assessed as cell growth at 5X10'-7 M after 48 hrs by sulforhodamine B assay; settings: MOLT-4, 48 h, read-out: Activity
MCF7 = experiment: Growth inhibition of human MCF7 cells assessed as cell growth at 5X10'-8 M after 48 hrs by sulforhodamine B assay; settings: MCF7, 48 h, read-out: Activity
U-251 [9] = experiment: Growth inhibition of human U251 cells assessed as cell growth at 5X10'-7 M after 48 hrs by sulforhodamine B assay; settings: U-251, 48 h, read-out: Activity
K562 [10] = experiment: Growth inhibition of human K562 cells assessed as cell growth at 5X10'-6 M after 48 hrs by sulforhodamine B assay; settings: K562, 48 h, read-out: Activity
CCRF-CEM = experiment: Growth inhibition of human CCRF-CEM cells assessed as cell growth at 5X10'-6 M after 48 hrs by sulforhodamine B assay; settings: read-out: Activity
SN12C [11] = experiment: Growth inhibition of human SN12C cells assessed as cell growth at 5X10'-5 M after 48 hrs by sulforhodamine B assay; settings: read-out: Activity
OVCAR-8 = experiment: Growth inhibition of human OVCAR8 cells assessed as cell growth at 5X10'-5 M after 48 hrs by sulforhodamine B assay; settings: OVCAR-8, 48 h, read-out: Activity
MDA-MB-231 [12] = experiment: Growth inhibition of human MDA-MB-231 cells assessed as cell growth at 5X10'-6 M after 48 hrs by sulforhodamine B assay; settings: MDA-MB-231, 48 h, read-out: Activity
NCI-H522 [13] = experiment: Growth inhibition of human NCI-H522 cells assessed as cell growth at 5X10'-7 M after 48 hrs by sulforhodamine B assay; settings: NCI-H522, 48 h, read-out: Activity
MDA-MB-231 [14] = experiment: Growth inhibition of human MDA-MB-231 cells assessed as cell growth at 5X10'-8 M after 48 hrs by sulforhodamine B assay; settings: MDA-MB-231, 48 h, read-out: Activity
SN12C [15] = experiment: Growth inhibition of human SN12C cells assessed as cell growth at 5X10'-7 M after 48 hrs by sulforhodamine B assay; settings: read-out: Activity
[16] = Growth inhibition of human HCC2998 cells assessed as cell growth at 5X10'-8 M after 48 hrs by sulforhodamine B assay; settings: HCC 2998, 48 h, read-out: Activity
NCI-H226 [17] = experiment: Growth inhibition of human NCI-H226 cells assessed as cell growth at 5X10'-9 M after 48 hrs by sulforhodamine B assay; settings: NCI-H226, 48 h, read-out: Activity
COLO 205 = experiment: Growth inhibition of human COLO205 cells assessed as cell growth at 5X10'-5 M after 48 hrs by sulforhodamine B assay; settings: COLO 205, 48 h, read-out: Activity
SF-295 = experiment: Growth inhibition of human SF295 cells assessed as cell growth at 5X10'-9 M after 48 hrs by sulforhodamine B assay; settings: SF-295, 48 h, read-out: Activity
M14 [18] = experiment: Growth inhibition of human M14 cells assessed as cell growth at 5X10'-9 M after 48 hrs by sulforhodamine B assay; settings: M14, 48 h, read-out: Activity
SNB-19 = experiment: Growth inhibition of human SNB19 cells assessed as cell growth at 5X10'-9 M after 48 hrs by sulforhodamine B assay; settings: SNB-19, 48 h, read-out: Activity
MDA-MB-435 [19] = experiment: Growth inhibition of human MDA-MB-435 cells assessed as cell growth at 5X10'-8 M after 48 hrs by sulforhodamine B assay; settings: MDA-MB-435, 48 h, read-out: Activity
LOX IMVI = experiment: Growth inhibition of human LOXIMVI cells assessed as cell growth at 5X10'-6 M after 48 hrs by sulforhodamine B assay; settings: read-out: Activity
U-251 [20] = experiment: Growth inhibition of human U251 cells assessed as cell growth at 5X10'-8 M after 48 hrs by sulforhodamine B assay; settings: U-251, 48 h, read-out: Activity
Malme-3M = experiment: Growth inhibition of human MALME-3M cells assessed as cell growth at 5X10'-5 M after 48 hrs by sulforhodamine B assay; settings: read-out: Activity
NCI-H322M = experiment: Growth inhibition of human NCI-H322M cells assessed as cell growth at 5X10'-8 M after 48 hrs by sulforhodamine B assay; settings: read-out: Activity

Work on `COc1cc(-c2nn(-c3cccc(NC(=O)Nc4cccc(C(F)(F)F)c4)c3)cc2-c2ccncc2)ccc1Cl` yielded a growth at 0.005 µM (OVCAR-3) of 108%, a growth at 5 µM (BT-549) of -12% and a growth at 0.5 µM (SR) of 75%. For the same molecule, the growth at 0.5 µM (NCI-H460) was 64%, the growth at 0.5 µM (MDA-MB-231 [1]) was 73% and the growth at 0.05 µM (PC-3) was 90%. It also gave a growth at 0.5 µM (OVCAR-5) of 80%, a growth at 0.005 µM (NCI-H522 [2]) of 95% and a growth at 0.05 µM (HCT-15) of 94%. It also gave a growth at 0.005 µM (K562 [3]) of 99%, a growth at 5 µM (U-251 [4]) of -86% and a growth at 5 µM [5] of -23%. For the same molecule, the growth at 5 µM (M14 [6]) was -54%, the growth at 0.05 µM (NCI-H226 [7]) was 96% and the growth at 0.5 µM (SF-268) was 87%. For the same molecule, the growth at 50 µM (MDA-MB-435 [8]) was -63%, the growth at 0.5 µM (MOLT-4) was 74% and the growth at 0.05 µM (MCF7) was 93%. It also gave a growth at 0.5 µM (U-251 [9]) of 67%, a growth at 5 µM (K562 [10]) of 3% and a growth at 5 µM (CCRF-CEM) of -1%. The growth at 50 µM (SN12C [11]) was -7%, the growth at 50 µM (OVCAR-8) was -24% and the growth at 5 µM (MDA-MB-231 [12]) was -35%. For the same molecule, the growth at 0.5 µM (NCI-H522 [13]) was 65%, the growth at 0.05 µM (MDA-MB-231 [14]) was 99% and the growth at 0.5 µM (SN12C [15]) was 80%. For the same molecule, the growth at 0.05 µM [16] was 98%, the growth at 0.005 µM (NCI-H226 [17]) was 100% and the growth at 50 µM (COLO 205) was -89%. It also gave a growth at 0.005 µM (SF-295) of 96%, a growth at 0.005 µM (M14 [18]) of 96% and a growth at 0.005 µM (SNB-19) of 96%. The growth at 0.05 µM (MDA-MB-435 [19]) was 97%, the growth at 5 µM (LOX IMVI) was -75% and the growth at 0.05 µM (U-251 [20]) was 98%. The growth at 50 µM (Malme-3M) was -51% and the growth at 0.05 µM (NCI-H322M) was 92%.
